“And” between values parts separate entries of the source, which are not always exact repeats. Identical values can stand only once. Toxic doses and inconclusive results are not listed.

Here are results for 15 molecules from PubChem BioAssay AID328 (DTP/NCI, 2004).

The assay relates to BDF1 mice, P388 leukemia ip, median survival T/C. Put plainly: NCI In Vivo Anticancer Drug Screen. Data for tumor model P388 Leukemia (intraperitoneal) in B6D2F1 (BDF1) mice. The following applies: endpoint: median survival time, higher = longer survival. An outline of the steps: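 Vehicle-dosed animals serve as the reference; survival of compound-dosed, tumour-implanted mice is divided by it.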

The mark [1] stands for this setting: dose: 50.0 mg/kg/injection, schedule: Q01DX009 (ip), vehicle: saline with Tween-80.
[2] abbreviates: dose: 100.0 mg/kg/injection, schedule: Q01DX009 (ip), vehicle: saline with Tween-80.
The mark [3] stands for this setting: dose: 100.0 mg/kg/injection, schedule: Q04DX003 (ip), vehicle: Klucel (hydroxypropylcellulose) (HPC).
The mark [4] stands for this setting: dose: 200.0 mg/kg/injection, schedule: Q01DX009 (ip), vehicle: saline with Tween-80.
[5] abbreviates: dose: 50.0 mg/kg/injection, schedule: Q04DX003 (ip), vehicle: Klucel (hydroxypropylcellulose) (HPC).
Where [6] appears, read: dose: 75.0 mg/kg/injection, schedule: Q04DX003 (ip), vehicle: Klucel (hydroxypropylcellulose) (HPC).
The mark [7] stands for this setting: dose: 100.0 mg/kg/injection, schedule: Q01DX009 (ip), vehicle: Klucel (hydroxypropylcellulose) (HPC).

For `NC(=S)N/N=C\c1ncnc2nc[nH]c12`, the T/C is 107 % of control (dose: 1.0 mg/kg/injection, schedule: Q01DX009 (ip), vehicle: Klucel (hydroxypropylcellulose) (HPC)); 111 % of control (dose: 2.0 mg/kg/injection, schedule: Q01DX009 (ip), vehicle: Klucel (hydroxypropylcellulose) (HPC)); 150 % of control (dose: 4.0 mg/kg/injection, schedule: Q01DX009 (ip), vehicle: Klucel (hydroxypropylcellulose) (HPC)); 160 % of control (dose: 8.0 mg/kg/injection, schedule: Q01DX009 (ip), vehicle: Klucel (hydroxypropylcellulose) (HPC)); 175 % of control (dose: 16.0 mg/kg/injection, schedule: Q01DX009 (ip), vehicle: Klucel (hydroxypropylcellulose) (HPC)); 185 % of control (dose: 32.0 mg/kg/injection, schedule: Q01DX009 (ip), vehicle: Klucel (hydroxypropylcellulose) (HPC)).
`O=C(CC(O)(C(F)(F)F)C(F)(F)F)c1cccc(Cl)c1`: the T/C (dose: 100.0 mg/kg/injection, schedule: Q01DX001 (ip), vehicle: saline with Tween-80) was 113 % of control; the T/C (dose: 200.0 mg/kg/injection, schedule: Q01DX001 (ip), vehicle: saline with Tween-80) was 113 % of control; the T/C (dose: 400.0 mg/kg/injection, schedule: Q01DX001 (ip), vehicle: saline with Tween-80) is 118 % of control.
As for `CC[CH2][Pb]([CH2]CC)([CH2]CC)[O]C(=O)C(Cl)(Cl)Cl`, the T/C reads like this: (dose: 3.12 mg/kg/injection, schedule: Q01DX009 (ip), vehicle: saline with Tween-80) 122 % of control; (dose: 6.25 mg/kg/injection, schedule: Q01DX009 (ip), vehicle: saline with Tween-80) 121 % of control; (dose: 12.5 mg/kg/injection, schedule: Q01DX009 (ip), vehicle: saline with Tween-80) 108 % of control.
`CCCOP(=O)(CCl)OCCC`: the T/C was 95 % of control (dose: 100.0 mg/kg/injection, schedule: Q04DX003 (ip), vehicle: saline); 100 % of control (dose: 200.0 mg/kg/injection, schedule: Q04DX003 (ip), vehicle: saline); 100 % of control (dose: 400.0 mg/kg/injection, schedule: Q04DX003 (ip), vehicle: saline).
In the case of `COc1cc2c(cc1OC)/C(=N\O)CCCC2`, the T/C is 119 % of control under setting [1]; 114 % of control under setting [2]; 100 % of control under setting [3]; 90 % of control under setting [4]; 100 % of control (dose: 200.0 mg/kg/injection, schedule: Q04DX003 (ip), vehicle: Klucel (hydroxypropylcellulose) (HPC)); 100 % of control (dose: 400.0 mg/kg/injection, schedule: Q04DX003 (ip), vehicle: Klucel (hydroxypropylcellulose) (HPC)).
Consider `C=CC(=O)NC1CCCCC1`, for which the T/C was 90 % of control under setting [5]; 104 % of control under setting [6]; 104 % of control (dose: 150.0 mg/kg/injection, schedule: Q04DX003 (ip), vehicle: Klucel (hydroxypropylcellulose) (HPC)).
In the case of `COC(=O)Nc1nc2ccc(C(=O)c3cccs3)cc2[nH]1`, the T/C is 117 % of control (dose: 20.0 mg/kg/injection, schedule: Q01DX009 (ip), vehicle: saline with Tween-80); 167 % of control (dose: 21.6 mg/kg/injection, schedule: Q04DX003 (ip), vehicle: other); 153 % of control (dose: 22.0 mg/kg/injection, schedule: Q04DX003 (ip), vehicle: other); 199 % of control (dose: 36.0 mg/kg/injection, schedule: Q04DX003 (ip), vehicle: other); 183 % of control (dose: 40.0 mg/kg/injection, schedule: Q01DX009 (ip), vehicle: saline with Tween-80); 163 % of control and 173 % of control under setting [5]. The T/C was 225 % of control (dose: 60.0 mg/kg/injection, schedule: Q01DX009 (ip), vehicle: saline with Tween-80); 274 % of control (dose: 60.0 mg/kg/injection, schedule: Q04DX003 (ip), vehicle: other); 173 % of control and 175 % of control under setting [6]; 193 % of control (dose: 75.0 mg/kg/injection, schedule: Q04DX003 (ip), vehicle: saline with Tween-80); 165 % of control and 184 % of control under setting [3].
`CSc1ncnc2c1ncn2CO`: the T/C reads like this: (dose: 30.0 mg/kg/injection, schedule: Q01DX009 (ip), vehicle: Klucel (hydroxypropylcellulose) (HPC)) 110 % of control; (dose: 30.0 mg/kg/injection, schedule: Q01DX009 (ip), vehicle: saline) 108 % of control; under setting [7], 150 % of control; under setting [2], 154 % of control; (dose: 120.0 mg/kg/injection, schedule: Q01DX009 (ip), vehicle: Klucel (hydroxypropylcellulose) (HPC)) 150 % of control; (dose: 150.0 mg/kg/injection, schedule: Q01DX009 (ip), vehicle: Klucel (hydroxypropylcellulose) (HPC)) 90 % of control. Under “dose: 400.0 mg/kg/injection, schedule: Q04DX003 (ip), vehicle: saline with Tween-80”, the T/C is 95 % of control.
For `COP(=O)(O)/C(C)=N/NS(=O)(=O)c1ccc(C)cc1`, the T/C is, setting by setting: (dose: 25.0 mg/kg/injection, schedule: Q01DX009 (ip), vehicle: other) 100 % of control; (dose: 50.0 mg/kg/injection, schedule: Q01DX009 (ip), vehicle: other) 103 % of control; (dose: 100.0 mg/kg/injection, schedule: Q01DX009 (ip), vehicle: other) 100 % of control; (dose: 200.0 mg/kg/injection, schedule: Q01DX009 (ip), vehicle: other) 100 % of control; (dose: 400.0 mg/kg/injection, schedule: Q01DX009 (ip), vehicle: other) 102 % of control.
Turning to `NC(=O)N/N=C1/CCCC(C(=O)O)C1` (stereo not drawn), the T/C by setting is: (dose: 50.0 mg/kg/injection, schedule: Q01DX001 (ip), vehicle: Klucel (hydroxypropylcellulose) (HPC)) 91 % of control; (dose: 100.0 mg/kg/injection, schedule: Q01DX001 (ip), vehicle: Klucel (hydroxypropylcellulose) (HPC)) 116 % of control; (dose: 200.0 mg/kg/injection, schedule: Q01DX001 (ip), vehicle: Klucel (hydroxypropylcellulose) (HPC)) 91 % of control; (dose: 400.0 mg/kg/injection, schedule: Q01DX001 (ip), vehicle: Klucel (hydroxypropylcellulose) (HPC)) 95 % of control.
As for `Cc1ccc(SS(=O)(=O)c2ccc(C)cc2)cc1`, the T/C by setting is: (dose: 25.0 mg/kg/injection, schedule: Q01DX009 (ip), vehicle: saline sonified) 108 % of control; (dose: 50.0 mg/kg/injection, schedule: Q01DX009 (ip), vehicle: saline sonified) 117 % of control; (dose: 100.0 mg/kg/injection, schedule: Q01DX009 (ip), vehicle: saline sonified) 117 % of control.
Regarding `O=C1CCC(NC2OC(=O)c3ccccc32)C(=O)O1` (stereo not drawn), the T/C was 111 % of control under setting [1], 102 % of control under setting [2] and 109 % of control under setting [4].
`Oc1ccc(Br)c2cccnc12`: the T/C (dose: 25.0 mg/kg/injection, schedule: Q01DX009 (ip), vehicle: Klucel (hydroxypropylcellulose) (HPC)) is 91 % of control; the T/C (dose: 50.0 mg/kg/injection, schedule: Q01DX009 (ip), vehicle: Klucel (hydroxypropylcellulose) (HPC)) was 111 % of control; the T/C under setting [7] is 98 % of control; the T/C (dose: 200.0 mg/kg/injection, schedule: Q01DX009 (ip), vehicle: Klucel (hydroxypropylcellulose) (HPC)) was 102 % of control; the T/C (dose: 200.0 mg/kg/injection, schedule: Q01DX010 (ip), vehicle: saline) is 100 % of control.
Regarding `CN(C)[C@@H]1C(=O)C(C(N)=O)=C(O)[C@]2(O)C(=O)C3C(=O)c4c(O)ccc(Cl)c4[C@](C)(O)[C@H]3C[C@@H]12` (stereo partly drawn), the T/C (dose: 33.0 mg/kg/injection, schedule: Q04DX003 (ip), vehicle: saline sonified) was 115 % of control.
`CN(C)c1ccc(-c2cc[n+](C)cc2)cc1`: the T/C (dose: 0.5 mg/kg/injection, schedule: Q01DX009 (ip), vehicle: saline) is 119 % of control; the T/C (dose: 1.0 mg/kg/injection, schedule: Q01DX009 (ip), vehicle: saline) was 111 % of control; the T/C (dose: 2.0 mg/kg/injection, schedule: Q01DX009 (ip), vehicle: saline) was 91 % of control; the T/C (dose: 3.0 mg/kg/injection, schedule: Q01DX009 (ip), vehicle: saline) is 106 % of control; the T/C (dose: 6.0 mg/kg/injection, schedule: Q01DX009 (ip), vehicle: saline) is 114 % of control.
